Experiments:
ERK1/2 = assay: Western analysis of phosphorylated p44/p42 MAPK in U937 cells; type: cell-based, human; conditions: 10 nM PMA, 100 nM FP, 30 min-6 h
Protocol: Western analysis. Equal quantities of protein (15 μg/condition for MAPK, 40 μg/condition for cytochrome c, or 25 μg/condition) were separated by SDS-PAGE [underphosporylated pRB (7.5%), poly(ADP-ribose)polymerase or PARP (8.0%), p44/p42 MAPK (10%), p21, p27, procaspase 3 (12%), and cytochrome c (15%)] and electroblotted onto nitrocellulose. Western analysis of p44/p42 MAPK protein was performed according to the manufacturer's instructions (New England Biolabs); otherwise, studies were performed as previously described [Wang et al, 1998]. Briefly, U937 cells (5×10^6) were pelleted by centrifugation, resuspended in 50 μl PBS, lysed by the addition of 2× Laemmli buffer and boiled for 5 min. Proteins were quantified with Coomassie protein assay reagent. Blots were blocked in PBS-T/5% milk, washed twice with PBS-T, and incubated overnight at 4° C. with the appropriate primary antibody. The blots were washed with PBS-T and incubated with a horseradish-peroxidase conjugated secondary antibody diluted appropriately in PBS-T/5% mill. Following incubation, blots were developed by enhanced chemiluminescence exposure to Kodak X-OMAT film (Eastman Kodak Co., Rochester, N.Y.) and reprobed with antibodies directed against actin to control for equal loading of protein.

[1] = test system: U937 myelomonocytic human leukemia cells; assay: percent cell death; type: cell-based; conditions: 1 μM SAHA, 100 nM FP, 24 hours after administration
[2] = test system: HL-60 human promyelocytic leukemia cells; assay: morphological assessment of apoptosis; type: cell-based; conditions: 3, 5, or 10 μM ATRA, 80 nM FP
Source text: Cell culture. The myelomonocytic leukemia cell line U937 was derived from a patient with histiocytic lymphoma and was obtained from American Type Culture Collection. The HL-60 cell line was derived from a patient with acute promyelocytic leukemia as previously described [Grant et al. 1992]. U937 and HL-60 cells were maintained in logarithmic growth phase by culturing in suspension in phenol red-free RPMI-1640 (Life Technologies, Inc., Grand Island, N.Y.) and 10% (v/v) fetal calf serum (Hyclone, Logan, Utah), in a humidified atmosphere (95% air/5% CO2) at 37° C. To obtain antisense-expressing cell lines, U937 cells were transfected by electroporation with a pREP4 vector (Invitrogen; Carlsbad, Calif.) or the pREP4 vector containing the p21^WAF1/CIP1 coding region in an antisense orientation as previously described [Wang et al. 1999]. […]
Morphological assessment of apoptosis. U937 cells were evaluated for apoptosis by morphological assessment of Wright and Giemsa-stained cytospin preparations. At designated times, cells were transferred to slides by cytocentrifugation, fixed, stained, and evaluated under light microscopy for treatment-induced apoptosis. […] Five or more randomly selected fields, encompassing a total≧500 cells/slide, were evaluated to determine the percentage of apoptotic cells for each treatment condition.

CN1CC[C@H](c2c(O)cc(O)c3c(=O)cc(-c4ccccc4Cl)oc23)[C@H](O)C1 [FP, Flavopiridol]
phosphorylation (activation) of ERK1/2 (ERK1/2): modestly increased ERK activation | cell death [1]: modest level of cell death | % apoptosis [2]: minimal effect

Reference: patent publication US20050004007A1, “Promotion of adoptosis in cancer cells by co-administration of cyclin dependent kinase inhibitiors and cellular differentiation agents” (priority 2000, published 2005)
